According to patent US8003666B2, “Hydrate for medical purposes” (priority 2006, dated 2011):
Values after ≈ are worked out from the molar mass of the structure shown.

System: Mycobacterium tuberculosis (bacteria resistant to quinolone)
Assay: microbe, parasite or virus in culture
Assay type: cell-based

Row | Compound | MIC (strain 1 (QR-3)) | MIC (strain 2 (QR-6)) | MIC (strain 3 (QR-1)) | MIC (strain 4 (QR-9)) | MIC (strain MDR 1) | MIC (strain MDR 3) | MIC (strain MDR 4) | MIC (strain MDR 5) | MIC (strain MDR 7) | MIC (strain MDR 9) | MIC (strain MDR 12) | MIC (strain s 1)
1 | COc1c(N2CC3(CC3)[C@](C)(N)C2)c(F)cc2c(=O)c(C(=O)O)cn([C@@H]3C[C@@H]3F)c12 [Hemihydrate, 7-[(7S)-7-Amino-7-methyl-5-azaspiro[2.4]heptan-5-yl]-6-fluoro-1-[(1R,2S)-2-fluorocyclopropyl]-8-methoxy-1,4-dihydro-4-oxoquinoline-3-carboxylic acid hemihydrate] | 0.125 mg/L | 0.5 mg/L | 0.25 mg/L | 0.25 mg/L | 0.125 mg/L | 0.125 mg/L | 0.25 mg/L | 0.5 mg/L | 0.125 mg/L | 0.125 mg/L | 0.125 mg/L | 1 mg/L
2 | CO[C@H]1/C=C/O[C@@]2(C)Oc3c(C)c(O)c4c(O)c(c(/C=N/N5CCN(C)CC5)c(O)c4c3C2=O)NC(=O)/C(C)=C\C=C\[C@H](C)[C@H](O)[C@@H](C)[C@@H](O)[C@@H](C)[C@H](OC(C)=O)[C@@H]1C [RFP, rifampicin] | > 128 mg/L | > 128 mg/L | 128 mg/L (≈ 156 µM) | > 128 mg/L | 16 mg/L (≈ 19.4 µM) | 128 mg/L (≈ 156 µM) | 64 mg/L (≈ 77.8 µM) | 32 mg/L (≈ 38.9 µM) | > 128 mg/L | 128 mg/L (≈ 156 µM) | 128 mg/L (≈ 156 µM) | 16 mg/L (≈ 19.4 µM)
